Here are results for 23 molecules from ChEMBL document CHEMBL1208703, “Structure-activity relationships and in vivo activity of (1H-pyrazol-4-yl)acetamide antagonists of the P2X(7) receptor” (Bioorg Med Chem Lett, 2010).

The source made the active and inactive calls. The calls are words filed in the database; no cut-off is given here.

The target of data set [1] is T1, P2X purinoceptor 7 (Homo sapiens, UniProt Q99572).
T1 sequence (Q99572 whole entry): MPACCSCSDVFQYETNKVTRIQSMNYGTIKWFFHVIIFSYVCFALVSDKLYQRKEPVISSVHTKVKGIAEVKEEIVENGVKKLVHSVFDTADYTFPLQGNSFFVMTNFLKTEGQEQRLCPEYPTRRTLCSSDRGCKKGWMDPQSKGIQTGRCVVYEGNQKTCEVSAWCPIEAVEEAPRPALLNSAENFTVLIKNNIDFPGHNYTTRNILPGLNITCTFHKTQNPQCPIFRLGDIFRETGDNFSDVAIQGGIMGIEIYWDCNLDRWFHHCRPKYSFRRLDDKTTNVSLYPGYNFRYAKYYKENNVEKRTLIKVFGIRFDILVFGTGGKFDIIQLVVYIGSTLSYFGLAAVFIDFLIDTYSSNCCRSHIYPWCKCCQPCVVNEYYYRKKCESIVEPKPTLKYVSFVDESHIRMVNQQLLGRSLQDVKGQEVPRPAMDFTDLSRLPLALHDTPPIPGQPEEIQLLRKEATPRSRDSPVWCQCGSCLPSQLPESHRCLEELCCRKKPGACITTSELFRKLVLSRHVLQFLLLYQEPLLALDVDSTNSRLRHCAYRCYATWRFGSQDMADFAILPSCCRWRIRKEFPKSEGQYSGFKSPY
Put plainly: Antagonist activity at human P2X7 receptor ethidium bromide release assay. In kind it is functional.

Data set [2] is described as follows: Excretion half life in rat at 1 mg/kg, iv. In kind it is ADME, organism-based. More on the design: dose 1 mg/kg, route intravenous. The conditions noted are these: in vivo, read-out: beta t1/2 (converted).
Data set [3] concerns Rattus norvegicus. Put plainly: Reversal of complete Freund's adjuvant-induced hypersensitivity in rat chronic knee joint pain model at 5-50 mg/kg, po administered 13 days after complete Freund's adjuvant challenge bid for 4 days measured on day 14. Type of data set: functional, organism-based.
Data set [4] concerns Brain. Put plainly: Drug level in rat brain at 10 mg/kg, po. Type of data set: ADME, organism-based. On the set-up: dose 10 mg/kg, route oral. The conditions noted are these: in vivo, read-out: Drug uptake.
The nature of data set [5]: Volume of distribution at steady state in rat at 1 mg/kg, iv. On the set-up: dose 1 mg/kg, route intravenous. The note with it: in vivo, read-out: Vdss. In kind it is ADME, organism-based.
The nature of data set [6]: Oral bioavailability in rat at 3 mg/kg. Type of data set: ADME, organism-based. The note with it: in vivo, read-out: Activity.
Data set [7] has as its target T2, P2X purinoceptor 7 (Rattus norvegicus, UniProt Q64663).
T2 sequence (Q64663 whole entry): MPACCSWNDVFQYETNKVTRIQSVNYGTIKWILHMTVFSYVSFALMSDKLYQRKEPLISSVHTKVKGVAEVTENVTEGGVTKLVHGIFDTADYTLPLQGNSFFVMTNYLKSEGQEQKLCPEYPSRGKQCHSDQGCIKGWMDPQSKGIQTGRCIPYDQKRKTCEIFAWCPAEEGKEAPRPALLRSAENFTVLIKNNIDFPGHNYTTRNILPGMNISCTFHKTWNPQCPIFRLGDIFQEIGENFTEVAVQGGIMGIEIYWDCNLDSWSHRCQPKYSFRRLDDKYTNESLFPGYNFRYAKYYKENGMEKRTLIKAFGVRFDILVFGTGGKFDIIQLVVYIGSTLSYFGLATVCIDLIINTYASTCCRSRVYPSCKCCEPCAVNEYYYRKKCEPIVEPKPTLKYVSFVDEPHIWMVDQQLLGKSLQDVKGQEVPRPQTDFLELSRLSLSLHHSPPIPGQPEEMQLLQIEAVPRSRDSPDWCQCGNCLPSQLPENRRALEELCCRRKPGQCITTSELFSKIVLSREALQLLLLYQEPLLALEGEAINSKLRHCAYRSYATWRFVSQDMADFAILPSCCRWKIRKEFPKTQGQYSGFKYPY
Put plainly: Antagonist activity at rat P2X7 receptor ethidium bromide release assay. Type of data set: functional.

A short description of data set [8]: Blood clearance in rat at 1 mg/kg, iv. In kind it is ADME, organism-based. The note with it: whole blood. On the set-up: dose 1 mg/kg, route intravenous.
Data set [9] has as its system Rattus norvegicus. Put plainly: Antihyperalgesic activity against complete Freund's adjuvant-induced hypersensitivity in po dosed rat inflammatory pain model after 1.5 hrs. In kind it is functional.
For data set [10], the system named is Rattus norvegicus. The data set can be described thus: Antihyperalgesic activity against complete Freund's adjuvant-induced hypersensitivity in rat inflammatory pain model at 10 mg/kg, po after 1.5 hrs. On the set-up: dose 10 mg/kg. Type of data set: functional, organism-based.
In data set [11] the test system is Blood. The data set can be described thus: Drug level in rat blood at 10 mg/kg, po. In kind it is ADME, organism-based. On the set-up: dose 10 mg/kg, route oral. The note with it: in vivo, read-out: Drug uptake.
Data set [12] deals with Rattus norvegicus. The data set can be described thus: Reversal of complete Freund's adjuvant-induced hypersensitivity in rat chronic knee joint pain model at 5-50 mg/kg, po administered 13 days after complete Freund's adjuvant challenge bid for 4 days measured on day 15. Type of data set: functional, organism-based.

Consider `Cc1noc(C)c1CCC(=O)NCc1ccc(F)cc1Cl`, for which the IC50 (in general, the concentration that inhibits the measured activity by half) in [1] was 63.1 nM.

With `Cc1n[nH]c(C)c1CC(=O)NCc1ccc(Cl)cc1`, half-maximal inhibition in data set [1] (IC50) was put at 631 nM.

`Cn1ncc(F)c1CC(=O)NCc1cccc(C(F)(F)F)c1Cl` gave an IC50 in [1] of 10 nM.

The molecule `Cc1n[nH]c(C)c1CC(=O)NCc1ccc(F)cc1C(F)(F)F` showed a 50% inhibitory concentration (IC50) in data set [1] of 39.8 nM.

Molecule `Cc1noc(C)c1CC(=O)NCc1ccc(Cl)cc1Cl` had an IC50 in data set [1] of 15.8 nM.

Molecule `Cc1n[nH]c(C)c1CC(=O)NCc1cccc(C(F)(F)F)c1Cl` showed a concentration for half-maximal inhibition (IC50) in data set [1] of 2.51 nM.

With `Cc1cn[nH]c1CCC(=O)NCc1ccc(F)cc1Cl`, in data set [1], the IC50 was 398 nM.

For `Cc1n[nH]c(C)c1CC(=O)NCc1ccc(Cl)c(C(F)(F)F)c1`, the IC50 in [1] is 63.1 nM.

Take `Cc1cc(CCC(=O)NCc2ccc(F)cc2Cl)n(C)n1`: inhibition in data set [1] was half-maximal at 316 nM (IC50).

With `Cc1n[nH]c(C)c1CC(=O)NCc1ccc(Cl)cc1Cl`, the half-life in data set [2] was 1.7 h. For the same molecule, the outcome in [3], in data set [10] and in data set [12] was Active. Moreover, the values for the concentration in [4] and in [11] were 4.9 µM and 20.9 µM, respectively. For the same molecule, the Vd in data set [5] came to 1 L/kg. For the same molecule, in data set [6], the bioavailability was 100%. For the same molecule, the IC50 in [7] was 79.4 nM; in data set [1] it was 7.94 nM. The clearance (in general, the rate of elimination divided by the concentration) in [8] turned out to be 9 mL/min/kg. The ED50 (in general, the midpoint of the dose-response relation) in [9] was 2.5 mg/kg.

Consider `Cc1[nH]nc(C(F)(F)F)c1CCC(=O)NCc1ccc(F)cc1Cl`, for which the IC50 in data set [1] is 12.6 nM.

`CCc1n[nH]c(CC)c1CCC(=O)NCc1ccc(F)cc1Cl` had an IC50 in [1] of 10 nM.

As for `Cc1cnn(C)c1CC(=O)NCc1cccc(C(F)(F)F)c1Cl`, in data set [1], the IC50 was 3.16 nM.

In [1], `Cc1[nH]nc(-c2ccccc2)c1CCC(=O)NCc1ccc(F)cc1Cl` had an IC50 greater than 1000 nM.

The molecule `Cc1[nH]nc(C(C)(C)C)c1CCC(=O)NCc1ccc(F)cc1Cl` gave an IC50 in data set [1] of 158 nM.

For `Cc1noc(C)c1CC(=O)NCc1cccc(C(F)(F)F)c1Cl`, inhibition in data set [1] was half-maximal at 2.51 nM (IC50).

Consider `Cc1n[nH]c(C)c1CC(=O)NCc1ccccc1Cl`, for which, in data set [1], the midpoint of inhibition, the IC50, lay at 251 nM.

`CC(C)c1n[nH]c(C(C)C)c1CCC(=O)NCc1ccc(F)cc1Cl` gave a half-inhibitory concentration (IC50) in data set [1] of 126 nM.

In turn, `Cc1n[nH]c(C)c1CC(=O)NCc1ccc(F)cc1F` gave an IC50 in data set [1] of 158 nM.

Regarding `Cc1n[nH]c(C)c1CC(=O)NCc1cccc(Cl)c1`, in data set [1], half-maximal inhibition (IC50) was put at 158 nM.

For `Cc1cnn(C)c1CC(=O)NCc1ccc(Cl)cc1Cl`, the IC50 in data set [1] is 10 nM.

For the molecule `Cc1cnn(C)c1CCC(=O)NCc1ccc(F)cc1Cl`, the IC50 in [1] is 158 nM.

`Cc1[nH]nc(CC(C)C)c1CCC(=O)NCc1ccc(F)cc1Cl`: in data set [1], the IC50 is 100 nM.
